What was measured:
Type in all cases: cell-based
[1] = tested on: Human Monocytic Leukemia MV4-11; assay: Cell proliferation experiment (Alarm blue, 72 h, EC50)
Summary of the method: (§1)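 Growth inhibition over 72 h. Cells were cultured in standard media and passaged at least twice before plating, then treated with a 5-fold compound gradient. EC50 came from Alamar blue fluorescence.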

[2] = tested on: Human cervical adenocarcinoma cells Hela; assay: as above; details: Homo sapiens
Summary of the method: as §1

PLK1 = target: T1, PLK1 (Homo sapiens, UniProt P53350); assay: Western blot, protein degradation (DC50); details: 24 h, western blot; read-out: PLK1 DC50 (24 h)
T1 construct: endogenous in cells
T1 sequence (P53350 whole entry): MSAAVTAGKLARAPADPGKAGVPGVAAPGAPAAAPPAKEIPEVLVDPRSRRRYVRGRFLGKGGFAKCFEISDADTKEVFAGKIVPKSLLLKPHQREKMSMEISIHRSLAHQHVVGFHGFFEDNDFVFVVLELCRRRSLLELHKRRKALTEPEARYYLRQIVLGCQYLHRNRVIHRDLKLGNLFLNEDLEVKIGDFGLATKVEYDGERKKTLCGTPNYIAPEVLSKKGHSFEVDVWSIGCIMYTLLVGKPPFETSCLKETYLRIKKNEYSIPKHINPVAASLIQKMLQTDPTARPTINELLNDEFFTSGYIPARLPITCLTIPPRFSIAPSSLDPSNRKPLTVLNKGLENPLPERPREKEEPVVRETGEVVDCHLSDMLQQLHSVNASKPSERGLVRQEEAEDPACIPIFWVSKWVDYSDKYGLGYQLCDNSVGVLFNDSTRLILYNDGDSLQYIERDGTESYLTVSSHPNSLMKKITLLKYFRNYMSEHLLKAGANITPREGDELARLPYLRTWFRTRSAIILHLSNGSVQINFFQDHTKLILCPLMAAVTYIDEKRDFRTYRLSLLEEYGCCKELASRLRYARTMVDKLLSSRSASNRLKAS
Procedure: (§2) Cells were treated with the compound for a period of time, after that the cells were collected by centrifugation. After washing with PBS, the cells were lysed by adding RIPA buffer; the cell lysate were added to the loading buffer and then appropriate volume were taken and slowly added to the corresponding wells of the gel plate, and run the SDS-PAGE gel (4%-12%). After running the gel, transferred to the PVDF membrane and sealed with 5% skimmed milk powder at room temperature for 1 hour. The membrane was placed in the primary antibody diluted with 5% skimmed milk powder and shaked slowly overnight at 4° C. After incubation with primary antibody, the membrane was washed 3 times using a TBST shaker; added secondary antibody diluted with 5% skimmed milk powder corresponding to the primary antibody, and shaked slowly at room temperature for 1 hour. After incubation with secondary antibody, the membrane was washed 3 times using the TBST shaker again. The PVDF membrane was flatted in the cassette, the strip was evenly infiltrated with ECL developer solution, and placed in ChemDoc XRS+ gel imager for taking pictures. The intensity of protein bands was analyzed quantitatively using ImageJ software.

BRD4 = target: T2, BRD4 (Homo sapiens, UniProt O60885); assay: Western blot, protein degradation (DC50); details: 24 h, western blot; read-out: BRD4 DC50 (24 h)
T2 construct: endogenous in cells
Procedure: as §2

[3] = tested on: Human Colon Cancer HCT-116; assay: Cell proliferation experiment (Alarm blue, 72 h, EC50); details: Homo sapiens, HCT-116; HCT116 cells
Summary of the method: as §1

[4] = Homo sapiens, MV4-11, MV4;11 cells

SMILES	EC50 [1, 4] [nM]	EC50 [2] [nM]	DC50 (PLK1) [nM]	DC50 (BRD4) [nM]	EC50 ([1]; MV4;11 cells) [nM]	EC50 [3] [nM]
CC[C@@H]1c2nncn2-c2cnc(Nc3ccc(C(=O)NCCCOCC(=O)Nc4cccc5c4CN(C4CCC(=O)NC4=O)C5=O)cc3OC)nc2N1C1CCCC1 (stereo partly shown) [UB-180510]	> 1000	> 1000	–	–	–	–
CC[C@@H]1c2nncn2-c2cnc(Nc3ccc(C(=O)NCCOCCOCCOCC(=O)N[C@H](C(=O)N4C[C@H](O)C[C@H]4C(=O)NCc4ccc(-c5scnc5C)cc4)C(C)(C)C)cc3OC)nc2N1C1CCCC1 [UB-180516]	> 1000	> 1000	–	–	–	–
CC[C@@H]1c2c(C#N)ncn2-c2cnc(Nc3ccc(C(=O)NCCOCC(=O)Nc4cccc5c4CN(C4CCC(=O)NC4=O)C5=O)cc3OC)nc2N1C1CCCC1 (stereo partly shown) [UB-180518]	> 1000	> 1000	–	–	–	–
CC[C@@H]1c2nncn2-c2cnc(Nc3ccc(C(=O)NCCCC(=O)Nc4cccc5c4CN(C4CCC(=O)NC4=O)C5=O)cc3OC)nc2N1C1CCCC1 (stereo partly shown) [UB-180521]	> 1000	> 1000	–	–	–	–
CC[C@@H]1c2c(C#N)ncn2-c2cnc(Nc3ccc(C(=O)NCCOCCOCCC(=O)Nc4cccc5c4CN(C4CCC(=O)NC4=O)C5=O)cc3OC)nc2N1C1CCCC1 (stereo partly shown) [UB-180538]	> 1000	> 1000	–	–	–	–
CC[C@@H]1c2nncn2-c2cnc(Nc3ccc(C(=O)NCCOCC(=O)N[C@H](C(=O)N4C[C@H](O)C[C@H]4C(=O)NCc4ccc(-c5scnc5C)cc4)C(C)(C)C)cc3OC)nc2N1C1CCCC1 [UB-180540]	> 1000	> 1000	–	–	–	–
CC[C@@H]1C(=O)N(C)c2cnc(Nc3ccc(C(=O)NCCOCCOCCOCCNCCCC(=O)Nc4cccc5c4CN(C4CCC(=O)NC4=O)C5=O)cc3OC)nc2N1C1CCCC1 (stereo partly shown) [UB-180647]	–	–	10 to 100	< 10	10 to 100	> 1000

Further lines, with some results ahead:

EC50 [1, 4] [nM]	EC50 [2] [nM]	SMILES	DC50 (PLK1) [nM]	DC50 (BRD4) [nM]	EC50 ([1]; MV4;11 cells) [nM]	EC50 [3] [nM]
100 to 1000	> 1000	CC[C@@H]1c2c(C#N)ncn2-c2cnc(Nc3ccc(C(=O)NCCCCOCC(=O)Nc4cccc5c4CN(C4CCC(=O)NC4=O)C5=O)cc3OC)nc2N1C1CCCC1 (stereo partly shown) [UB-180512]	–	–	–	–
10 to 100	> 1000	CC[C@@H]1c2c(C#N)ncn2-c2cnc(Nc3ccc(C(=O)NCCOCCOCCOCC(=O)N[C@H](C(=O)N4C[C@H](O)C[C@H]4C(=O)NCc4ccc(-c5scnc5C)cc4)C(C)(C)C)cc3OC)nc2N1C1CCCC1 [UB-180519]	–	–	–	–
100 to 1000	> 1000	CC[C@@H]1c2nncn2-c2cnc(Nc3ccc(C(=O)NCCOCCOCCOCCC(=O)N[C@H](C(=O)N4C[C@H](O)C[C@H]4C(=O)NCc4ccc(-c5scnc5C)cc4)C(C)(C)C)cc3OC)nc2N1C1CCCC1 [UB-180522]	–	–	–	–
10 to 100	> 1000	CC[C@@H]1c2nncn2-c2cnc(Nc3ccc(C(=O)NCCCCOCC(=O)Nc4cccc5c4CN(C4CCC(=O)NC4=O)C5=O)cc3OC)nc2N1C1CCCC1 (stereo partly shown) [UB-180524]	–	–	–	–
100 to 1000	> 1000	CC[C@@H]1c2c(C#N)ncn2-c2cnc(Nc3ccc(C(=O)NCCCC(=O)Nc4cccc5c4CN(C4CCC(=O)NC4=O)C5=O)cc3OC)nc2N1C1CCCC1 (stereo partly shown) [UB-180537]	–	–	–	–
10 to 100	> 1000	CC[C@@H]1c2nncn2-c2cnc(Nc3ccc(C(=O)NCCCC(=O)N[C@H](C(=O)N4C[C@H](O)C[C@H]4C(=O)NCc4ccc(-c5scnc5C)cc4)C(C)(C)C)cc3OC)nc2N1C1CCCC1 [UB-180539]	–	–	–	–
100 to 1000	> 1000	CC[C@@H]1c2nncn2-c2cnc(Nc3ccc(C(=O)NCCCOCC(=O)N[C@H](C(=O)N4C[C@H](O)C[C@H]4C(=O)NCc4ccc(-c5scnc5C)cc4)C(C)(C)C)cc3OC)nc2N1C1CCCC1 [UB-180541]	–	–	–	–
100 to 1000	> 1000	CC[C@@H]1c2c(C#N)ncn2-c2cnc(Nc3ccc(C(=O)NCCCOCC(=O)N[C@H](C(=O)N4C[C@H](O)C[C@H]4C(=O)NCc4ccc(-c5scnc5C)cc4)C(C)(C)C)cc3OC)nc2N1C1CCCC1 [UB-180542]	–	–	–	–
10 to 100	> 1000	CC[C@@H]1c2c(C#N)ncn2-c2cnc(Nc3ccc(C(=O)NCCCC(=O)N[C@H](C(=O)N4C[C@H](O)C[C@H]4C(=O)NCc4ccc(-c5scnc5C)cc4)C(C)(C)C)cc3OC)nc2N1C1CCCC1 [UB-180543]	–	–	–	–
